From patent US12240854B2, “TRAF 6 inhibitors” (Helmholtz Zentrum München - Deutsches Forschungszentrum für …, priority 2018, dated 2025)
Entries after “also recorded” stand apart in the source; their conditions may differ.

Legend:
[1] = test system: U2932 (ABC DLBCL-MYD88 wt); assay: Cell viability in DLBCL, U2932; type: cell-based; conditions: U2932, 30 μM, 9 days
Method: To determine the effects of C25-140 on MYD88-dependent ABC-DLBCL, we chose the HBL1 (ABC-DLBCL-MYD88 L265P), U2932 (ABC DLBCL-MYD88 wt) and BJAB (GCB DLBCL) cell lines. 1×10^6 cells of each cell line was seeded in 5 ml and treated with 30 μM compound C25-140 (compound 3) or DMSO. The entire experiment was carried out for 9 days. Every day 500 μl were taken and viable cell number was acquired using the ViCEII cell counter (Beckmann Coulter). At days 4 and 8 of the experiment the volume was again adjusted to 5 ml and samples were supplemented with 30 μM compound C25-140 or DMSO. This process was necessary to ensure linear proliferation of DMSO treated cells. All curves of C25-140 treated samples were referred to the corresponding DMSO treated controls.

[2] = test system: Jurkat T-cells; assay: Cell cycle assessment (propidium iodide), Jurkat T-cells; type: cell-based, human; conditions: 24 hours and 72 hours
Method: For cell cycle staining, cells were seeded at 2×10^5 cells per sample and treated with compound or DMSO. After the indicated incubation time (24 or 72 hours), cells were fixed in 100% Ethanol and subsequently stained with the Propidium Iodide staining solution (0.1% Triton X-100; 20 μg/ml Propidium Iodide; 200 μg/ml RNAse A in PBS) for 40 min in the dark. The Propidium Iodide fluorescence was collected using the Attune Flow Cytometer (Thermo Fisher Scientific). Analysis was performed using the Single Cell analysis software FlowJo.

[3] = test system: MEF cells; assay: CellTiter-Glo viability assay, MEF cells; type: cell-based, mouse; conditions: 6 or 24 hours incubation
Method: (§1) For cell viability experiments using the CellTiter-Glo® 2.0 system (Promega), MEF cells (1.2×10^3 cells/well), HepG2 cells (4×10^3 cells/well) and Jurkat T-cells (5×10^3 cells/well) were seeded in 384 well plates. After 18 hours, cells were treated with compounds using the Sciclone G3 automation system. After 6 or 24 hours incubation, the luciferase measurement was performed according to the manufacturer's manual.

[4] = Pharmacokinetic studies (IV, PO, IP); type: in vivo
Method: All ADME (plasma stability, plasma protein binding, microsomal stability, Log D, Caco-2 assay, CYP450 inhibition and hERG predictor assay) as well as pharmacokinetic studies (Tmax, Cmax, AUC0-240min, Mean Residence Time, Elimination half life, Elimination rate constant, Volume of Distribution and Clearance) of C25-140 (compound 3) were conducted by Bienta Enamine Biology Services of Bienta/Enamine Ltd.
The inventors also tested the pharmacokinetics (PK) of C25-140 after intravenous (IV), peroral (PO) and intraperitoneal (IP) injection of each 10 mg/kg compound. All the analyzed data are summarized in FIG. 9B and the concentration/time-course graph for IP administration is shown in FIG. 9C.

[5] = test system: Jurkat T-cells; assay: CellTiter-Glo viability assay, Jurkat T-cells; type: cell-based, human; conditions: 6 or 24 hours incubation
Method: as §1

[6] = test system: IKK kinase activity in Jurkat T-cells; assay: IKK kinase assay in Jurkat T-cells; type: cell-based, human; conditions: PMA/Ionomycin
Method: For MEF cells, 5.5×10^5 cells were seeded, then treated with compound for 6 hours and eventually stimulated with IL-1β or TNFα for 8 minutes. 1×10^6 Jurkat T-cells were treated with compound for 6 hours and finally stimulated with PMA (400 ng/ml) and lonomycin (600 ng/ml) for 8 minutes. After cell lysis in Co-IP lysis buffer (150 mM NaCl; 25 mM Hepes (pH 7.5); 0.2% NP-40; 1 mM Glycerol; 10 mM NaF; 8 mM β-Glycerophosphat; 1 mM DTT; 300 μM Sodium-vanadate; complete protease inhibitor), input samples were taken and the supernatant was then incubated with 6 μL IKKγ antibody FL-419 (Santa Cruz Biotechnology). Upon incubation with Protein-G-Sepharose beads (GE Healthcare), beads were washed in Co-IP wash buffer (150 mM NaCl; 25 mM Hepes (pH 7.5); 0.2% NP-40; 1 mM Glycerol) and transferred into kinase reaction buffer ([…] HEPES pH7.9; 10 mM MgCl2; 20 μM ATP; 20 mM β-Glycerophosphat; 200 μM Sodium-Vanadate; 1 mM DTT) supplemented with […] GST-IκBα (1-53) and 0.5 μL ^32P-γ-ATP. After 30 minutes incubation at 37° C., reaction was stopped and analyzed by autoradiography as well as Western Blot after separation on SDS-PAGE.

[7] = test system: 87 primary molecular targets (kinases, non-kinase enzymes, nuclear receptors, GPCRs, transporters and ion channels); assay: SafetyScreen87 (Eurofins Cerep Panlabs); type: binding; conditions: 10 μM
Method: The SafetyScreen87, a total of 87 assays, was carried out at Eurofins Cerep Panlabs. 87 primary molecular targets including 13 enzyme assays (kinases and non-kinase enzymes) and 74 binding assays (nuclear receptors, GPCRs, transporters and ion channels) were performed at a compound concentration of 10 μM C25-140. Each of the 87 assay reactions was performed at the optimised condition that was historically available at Eurofins Cerep Panlabs. In parallel to C25-140, a reference compound for each of the 87 reactions was concurrently tested to guarantee optimal setting of the assays. In this study the reference compounds performed in the same range as historic Ki values.

[8] = target: T1, MDM2 (Homo sapiens, UniProt Q00987); assay: In vitro ubiquitination assay, MDM2 ubiquitin ligase kit (p53 substrate); type: biochemical; conditions: K48 chain formation
T1 construct: purchased Boston Biochem
Method: (§2) For analysis of cIAP1, MDM2, TRIM63, RNF4, ITCH and E6AP mediated poly-ubiquitination, the respective ubiquitin ligase kit from Boston Biochem (K-102, K-260, K-200B, K-220, K-240 and K-270) was used. Here, reaction buffer, E1, E2 and E3 enzyme (and p53 substrate in case of MDM2) were mixed and pre-incubated with compound or DMSO for 5 minutes at room temperature before adding Mg^2+-ATP and mono-ubiquitin for reaction start. Ubiquitination was visualized by Western Blot analyses.

[9] = target: T2, E6AP (Homo sapiens, UniProt Q05086); assay: In vitro ubiquitination assay, E6AP ubiquitin ligase kit; type: biochemical
T2 construct: purchased Boston Biochem
Method: as §2

T1 sequence (Q00987 whole entry): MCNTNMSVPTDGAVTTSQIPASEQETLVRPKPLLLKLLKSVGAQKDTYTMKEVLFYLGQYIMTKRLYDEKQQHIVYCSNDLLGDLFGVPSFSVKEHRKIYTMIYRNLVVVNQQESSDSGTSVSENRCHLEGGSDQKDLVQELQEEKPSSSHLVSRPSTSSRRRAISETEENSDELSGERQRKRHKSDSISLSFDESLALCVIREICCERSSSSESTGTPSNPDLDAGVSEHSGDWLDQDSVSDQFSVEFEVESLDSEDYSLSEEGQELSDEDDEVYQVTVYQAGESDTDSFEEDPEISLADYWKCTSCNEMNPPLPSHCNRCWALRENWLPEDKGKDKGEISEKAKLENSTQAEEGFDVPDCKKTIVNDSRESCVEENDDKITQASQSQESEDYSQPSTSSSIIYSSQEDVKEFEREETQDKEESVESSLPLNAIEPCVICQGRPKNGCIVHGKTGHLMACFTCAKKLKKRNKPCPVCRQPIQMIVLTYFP
T2 sequence (Q05086 whole entry): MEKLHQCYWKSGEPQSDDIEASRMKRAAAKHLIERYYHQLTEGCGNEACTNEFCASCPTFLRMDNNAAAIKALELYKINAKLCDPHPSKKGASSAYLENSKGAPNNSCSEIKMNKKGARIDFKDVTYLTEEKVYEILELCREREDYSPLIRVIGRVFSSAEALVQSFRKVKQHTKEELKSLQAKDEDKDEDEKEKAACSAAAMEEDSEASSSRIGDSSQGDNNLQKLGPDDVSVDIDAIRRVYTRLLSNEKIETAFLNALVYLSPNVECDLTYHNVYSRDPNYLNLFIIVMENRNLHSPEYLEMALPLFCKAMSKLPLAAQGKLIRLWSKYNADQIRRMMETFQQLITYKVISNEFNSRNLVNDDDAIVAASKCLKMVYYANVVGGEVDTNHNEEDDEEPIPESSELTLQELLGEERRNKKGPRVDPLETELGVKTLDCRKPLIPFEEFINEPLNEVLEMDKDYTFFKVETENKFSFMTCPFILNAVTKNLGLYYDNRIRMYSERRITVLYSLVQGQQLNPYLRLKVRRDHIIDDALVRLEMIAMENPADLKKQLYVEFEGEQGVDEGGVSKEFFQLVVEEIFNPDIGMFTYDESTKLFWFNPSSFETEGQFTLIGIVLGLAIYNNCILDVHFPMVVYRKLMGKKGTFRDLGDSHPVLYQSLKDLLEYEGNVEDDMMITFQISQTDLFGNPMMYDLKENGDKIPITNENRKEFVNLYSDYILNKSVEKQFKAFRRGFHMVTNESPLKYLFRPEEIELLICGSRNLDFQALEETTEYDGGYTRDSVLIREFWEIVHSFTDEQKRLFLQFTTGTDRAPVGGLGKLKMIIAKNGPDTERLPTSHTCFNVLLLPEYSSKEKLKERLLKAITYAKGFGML

Compound: Cc1nn(-c2ccc3nnc(C)n3n2)c(C)c1CCC(=O)N1CCC(Cc2ccccc2)CC1 [Example C25-140, 1-(4-Benzylpiperidin-1-yl)-3-(3,5-dimethyl-1-(3-methyl-[1,2,4]-triazolo-[4,3-b]-pyridazin-6-yl)-1H-pyrazol-4-yl)-propan-1-one]
- viability of MYD88 wildtype ABC DLBCL [1]: only slightly affected; also recorded: not affected
- cell cycle progression [2]: no effects on cell cycle phases; also recorded: not impaired
- metabolic activity and cell viability [3]: did not considerably impact cell viability; also recorded: does not considerably affect metabolic activity and cell viability up to 50 μM; also recorded: at the highest dose of 100 μM toxicity is noticeable
- adverse effects on animals during the PK studies ([4]; 10 mg/kg IV, PO, IP): no obvious adverse effects
- in vivo half life (in words) ([4]; IV, PO, IP): moderate in vivo half life
- initial distribution phase (in words) ([4]; IV, PO, IP): rapid initial distribution phase
- bioavailability (in words) ([4]; in vivo): good bioavailability
- metabolic activity and cell viability [5]: did not considerably impact cell viability; also recorded: does not considerably affect metabolic activity and cell viability up to 50 μM; also recorded: at the highest dose of 100 μM toxicity is noticeable
- IKK kinase activity [6]: reduced; also recorded: diminished
- effect on / binding to the 87 SafetyScreen87 targets [7]: no significant binding; also recorded: did not markedly affect any of the 87 molecular targets
- p53 ubiquitination by MDM2 [8]: not influenced; also recorded: not affected
- S5A ubiquitination by E6AP [9]: not influenced; also recorded: not affected
